These results are taken from ChEMBL document CHEMBL4627385, “Cytotoxic Monoterpenoid Indole Alkaloids from Tabernaemontana corymbosa as Potent Autophagy Inhibitors by the Attenuation of Lysosomal Acidification” (J Nat Prod, 2020).

The term EC50 denotes the midpoint of the concentration-response curve. Low values mean higher potency in that assay, high ones lower potency in that assay. What is called IC50 is the concentration at which inhibition is half-maximal.

Activity calls are given as the source filed them. No cut-off for these calls is given here.

Common to all, as to assay type: functional, cell-based
For test [1], the system named is HeLa. As to the kind of experiment: Inhibition of lysosomal acidification in human HeLa cells incubated for 3 hrs by LysoTracker Red DND-99 staining based array scan method.
The test system of test [2] is HeLa. As to the kind of experiment: Inhibition of autophagic flux in human HeLa cells harboring GFP-LC3 assessed as increase in LC3 dot accumulation incubated for 12 hrs by confocal microscopic method.
For test [3], the system named is HeLa. As to the kind of experiment: Inhibition of autophagic flux in human HeLa cells assessed as increase in LC3-2 to LC3-1 ratio at 20 uM by Western blot analysis. A general note: A western blot detects proteins with antibodies after separation by electrophoresis.
Test [4] concerns HeLa. As to the kind of experiment: Inhibition of autophagic flux in human HeLa cells assessed as increase in LC3-2 to LC3-1 ratio at 20 uM in presence of Bafilomycin A1 by Western blot analysis.
Test [5] deals with HeLa. As to the kind of experiment: Inhibition of autophagic flux in human HeLa cells assessed as p62 protein expression at 20 uM by Western blot analysis.
For the next test, the system named is HL-60. Description: Cytotoxicity against human HL60 cells assessed as reduction in cell viability incubated for 48hrs by MTT assay. Particulars: HL-60, 48 h.
The next test has as its system A549. As to the kind of experiment: Cytotoxicity against human A549 cells assessed as reduction in cell viability incubated for 48hrs by MTT assay. Particulars: A549, 48 h.
A further test has as its system SMMC-7721. As to the kind of experiment: Cytotoxicity against human SMMC7721 cells assessed as reduction in cell viability incubated for 48hrs by MTT assay. Particulars: SMMC-7721, 48 h. In general terms: Tetrazolium assays rely on reduction of a dye to a coloured formazan, in cell work by metabolically active cells.
A further test deals with MCF7. Description: Cytotoxicity against human MCF7 cells assessed as reduction in cell viability incubated for 48hrs by MTT assay. Particulars: MCF7, 48 h.
The next test relates to SW480. As to the kind of experiment: Cytotoxicity against human SW480 cells assessed as reduction in cell viability incubated for 48hrs by MTT assay. Particulars: SW480, 48 h.
Test [6] concerns HeLa. As to the kind of experiment: Inhibition of autophagic flux in human HeLa cells assessed as inhibition of lysosomal acidification at 50 nM by Western blot analysis.
The subject of test [7] is HeLa. As to the kind of experiment: Inhibition of autophagic flux in human HeLa cells assessed as increase in LC3-2 accumulation at 50 nM by Western blot analysis.
Test [8] deals with HeLa. Description: Inhibition of autophagic flux in human HeLa cells assessed as increase in LC3-2 to LC3-1 ratio at 50 nM by Western blot analysis.
In test [9] the test system is HeLa. Description: Inhibition of autophagic flux in human HeLa cells assessed as p62 protein expression at 50 nM by Western blot analysis.

Turning to `COC(=O)[C@@]12C[C@@H]3CC([C@H](C)O)[C@@H]1[N@@](CC[C@]1(O)C2=Nc2ccc(OC)cc21)C3` (stereo partly drawn), in the test with HeLa [1], the EC50 is over 40 µM.

For the molecule `CCN(CC)CCCC(C)Nc1ccnc2cc(Cl)ccc12` (stereo not drawn) [CHLOROQUINE], the EC50 in the test with HeLa [1] came out at 19.6 µM.

The molecule `CC[C@H]1C[C@]2(C(=O)OC)CN3CC[C@@]4(O)C(=Nc5cc(OC)c([C@@H]6C[C@H]7[C@@]8(C(=O)OC)CO[C@H](N(C)[C@H]8Cc8c6[nH]c6ccccc86)[C@@]76O[C@H]6C)cc54)[C@](C(=O)OC)(C2)[C@H]13` came in with an EC50 in the test with HeLa [1] of 12.9 µM. Moreover, the inhibition result with HeLa [1] was “Dose-dependent effect”. Moreover, the inhibition result with HeLa [2], in the test with HeLa [3], in the test on HeLa [4] and in the test with HeLa [5] was “Active” throughout.

`CC[C@H]1C[C@@H]2CN3CCc4c([nH]c5cc(OC)ccc45)[C@](C(=O)OC)(C2)[C@H]13` [ISOVOACANGINE]: the EC50 with HeLa [1] was over 40 µM.

`COC(=O)[C@@]12C[C@@H]3CC([C@H](C)O)[C@@H]1[N@@](CC[C@]1(O)C2=Nc2ccccc21)C3` (stereo partly drawn) gave an EC50 in the test on HeLa [1] of over 40 µM.

In the case of `C/C=C1/CN2COC[C@]3(C(=O)OC)[C@@H]1C[C@@H](c1c(OC)ccc4c5c([nH]c14)[C@]1(C(=O)OC)C[C@H]4C[C@H](CC)[C@@H]1N(CC5)C4=O)c1[nH]c4ccccc4c1C[C@H]23`, the IC50 in the test with HL-60, in the test on A549, in the test with SMMC-7721, in the test with MCF7 and with SW480 was over 10 µM each time. In the test with HeLa [1], this molecule yielded an EC50 of over 40 µM.

`CC[C@H]1C[C@H]2CN3CC[C@@]4(O)C(=Nc5cc(OC)ccc54)[C@](C(=O)OC)(C2)[C@H]13`: the IC50 is over 10 µM in the test on HL-60; over 10 µM in the test on A549; over 10 µM with SMMC-7721; over 10 µM with MCF7; 7.5 µM in the test on SW480. The molecule further had an EC50 in the test with HeLa [1] of over 40 µM.

Regarding `C/C=C1/CN(C)[C@H]2Cc3c([nH]c4ccccc34)[C@H](c3c(OC)ccc4c3N=C3[C@]5(C(=O)OC)C[C@@H]6C[C@H](CC)[C@@H]5N(CC[C@]34O)C6)C[C@H]1[C@]2(CO)C(=O)OC`, in the test with HeLa [1], the EC50 is over 40 µM.

Take `CC[C@H]1C[C@H]2CN3CCc4c([nH]c5cc(OC)c([C@@H]6C[C@H]7[C@@]8(C(=O)OC)CO[C@H](N(C)[C@H]8Cc8c6[nH]c6ccccc86)[C@@]76O[C@H]6C)cc45)[C@](C(=O)OC)(C2)[C@H]13`: the IC50 in the test with HL-60 is under 10 µM; in the test on A549 it was under 10 µM; in the test with SMMC-7721, under 10 µM; in the test on MCF7, under 10 µM; in the test with SW480, over 10 µM. The molecule also displayed an EC50 in the test on HeLa [1] of 20.2 µM. The inhibition entry in the test with HeLa [1] was “Dose-dependent effect”. In addition, the inhibition entry in the test on HeLa [2], with HeLa [3], in the test on HeLa [4] and in the test with HeLa [5] was “Active” in each case.

Consider `CC[C@H]1C[C@H]2C[N@]3CCc4c([nH]c5ccc(OC)cc45)[C@](C(=O)OC)(C2)[C@H]13`, for which the EC50 with HeLa [1] was over 40 µM.

On to `CO/C1=C\C(C)=C\[C@@H](C)[C@@H](O)[C@@H](C)C/C(C)=C/C=C/[C@H](OC)[C@@H]([C@@H](C)[C@@H](O)[C@H](C)[C@@]2(O)C[C@@H](O)[C@H](C)[C@@H](C(C)C)O2)OC1=O`, for which the inhibition entry in the test on HeLa [6], in the test with HeLa [7], with HeLa [8] and in the test with HeLa [9] was “Active” in each case.

On to `COC(=O)C[C@@H]1[C@@H]2C[C@H]([C@H](C)O)[C@@H]3N1CCc1c([nH]c4ccc(OC)cc14)[C@]3(C(=O)OC)C2`, for which the IC50 in the test on HL-60, with A549, with SMMC-7721, with MCF7 and in the test on SW480 was over 10 µM in each case. In addition, the EC50 in the test with HeLa [1] is over 40 µM.

Take `C/C=C1/CN2COC[C@]3(C(=O)OC)[C@@H]1C[C@@H](c1c(OC)ccc4c1N=C1[C@]5(C(=O)OC)C[C@@H]6C[C@H](CC)[C@@H]5N(CC[C@]14O)C6)c1[nH]c4ccccc4c1C[C@H]23`: in the test on HeLa [1], the EC50 is over 40 µM.

Regarding `COC(=O)C[C@@H]1[C@@H]2C[C@H]([C@H](C)O)[C@@H]3N1CCc1c([nH]c4cc(OC)ccc14)[C@]3(C(=O)OC)C2`, the IC50 with HL-60, with A549, in the test on SMMC-7721, with MCF7 and in the test with SW480 was over 10 µM throughout. In addition, the EC50 in the test on HeLa [1] is over 40 µM.

In turn, `CC[C@H]1C[C@H]2C[C@@]3(C(=O)OC)c4[nH]c5ccccc5c4CC[N@@](C2CC(C)=O)[C@@H]13` (stereo partly drawn) gave an EC50 in the test on HeLa [1] of over 40 µM.

With `C/C=C1/CN2COC[C@@]3(C(=O)OC)[C@@H]1C[C@@H](c1c(OC)ccc4c5c([nH]c14)[C@]1(C(=O)OC)C[C@@H]4C[C@H](CC)[C@@H]1N(CC5)C4)c1[nH]c4ccccc4c1C[C@H]23`, the EC50 in the test with HeLa [1] was over 40 µM.

Turning to `C/C=C1/CN(C)[C@H]2Cc3c([nH]c4ccccc34)[C@H](c3c(OC)ccc4c5c([nH]c34)[C@]3(C(=O)OC)C[C@H]4C[C@H](CC)[C@@H]3N(C4)C[C@H]5OC)C[C@H]1[C@]2(CO)C(=O)OC`, the IC50 in the test on HL-60, in the test with A549, in the test on SMMC-7721, in the test on MCF7 and in the test on SW480 was over 10 µM each time. Further, the EC50 in the test with HeLa [1] was over 40 µM.

`CC[C@H]1C[C@@H]2CN3CCc4c([nH]c5ccccc45)[C@](C(=O)OC)(C2)[C@H]13` [CORONARIDINE]: the EC50 in the test on HeLa [1] is over 40 µM.

The molecule `COC(=O)[C@@]12C[C@@H]3C[C@H]([C@H](C)O)C1[N@@](CCc1c2[nH]c2ccccc12)C3` gave an EC50 in the test on HeLa [1] of over 40 µM.

In the case of `CC[C@H]1C[C@@H]2CN3CCc4c([nH]c5cc(OC)c([C@@H]6C[C@H]7C(C(=O)OC)[C@H](Cc8c6[nH]c6ccccc86)N(C)C[C@H]7CC)cc45)[C@](C(=O)OC)(C2)[C@H]13` (stereo partly drawn), in the test with HeLa [1], the EC50 came to 16 µM and the inhibition result was “Dose-dependent effect”.

For the molecule `COC(=O)[C@@]12CC3C[C@H]([C@H](C)O)[C@@H]1N(C3)Cn1c2c(C=O)c2ccccc21`, the IC50 in the test with HL-60, with A549, with SMMC-7721, with MCF7 and in the test with SW480 was over 10 µM each time. Further, the EC50 in the test on HeLa [1] is over 40 µM.

Take `C/C=C1/CN(C)[C@H]2Cc3c([nH]c4ccccc34)[C@H](c3cc4c(cc3OC)N=C3[C@]5(C(=O)OC)C[C@]6(C(=O)OC)C[C@H](CC)[C@@H]5N(CC[C@@]34O)C6)C[C@H]1[C@]2(CO)C(=O)OC`: in the test on HeLa [1], a half-maximal effect (EC50) was put at 25.7 µM and the inhibition entry is “Dose-dependent effect”.

In the case of `C/C=C1/CN(C)[C@H]2Cc3c([nH]c4ccccc34)[C@H](OC)C[C@H]1[C@]2(CO)C(=O)OC`, the IC50 in the test on HL-60, in the test on A549, in the test with SMMC-7721, in the test on MCF7 and with SW480 was over 10 µM in each case. The EC50 in the test on HeLa [1] was over 40 µM.

On to `CC[C@H]1C[C@H]2C[C@@]3(C(=O)OC)c4[nH]c5cc(OC)ccc5c4CC[N@@](C2CC(C)=O)[C@@H]13` (stereo partly drawn), for which, in the test with HeLa [1], the EC50 was over 40 µM.

`COC(=O)[C@@]12C[C@@H]3C[C@@H]([C@H](C)O)C1[N@@](CCc1c2[nH]c2ccccc12)C3` yielded an EC50 with HeLa [1] of over 40 µM.

In the case of `C/C=C1/CN2COC[C@@]3(C(=O)OC)[C@@H]1C[C@H](c1cc4c5c([nH]c4cc1OC)[C@]1(C(=O)OC)C[C@@H]4C[C@H](CC)[C@@H]1N(CC5)C4)c1[nH]c4ccccc4c1C[C@H]23`, the IC50 in the test on HL-60 turned out to be 3.2 µM; in the test with A549, 8.6 µM; with SMMC-7721, 4.7 µM; in the test with MCF7 it was 4 µM; with SW480, 3.5 µM. This molecule also gave an EC50 in the test with HeLa [1] of 29.8 µM. In addition, in the test on HeLa [1], the inhibition result was “Dose-dependent effect”.

As to `C/C=C1/CN(C)[C@H]2Cc3c([nH]c4ccccc34)[C@H](c3c(OC)ccc4c3N[C@]3(OC)[C@]5(C(=O)OC)C[C@H]6C[C@H](CC)[C@@H]5N5CC[C@@]43O[C@H]65)C[C@H]1[C@]2(CO)C(=O)OC`, the IC50 with HL-60, in the test on A549, in the test with SMMC-7721, with MCF7 and in the test on SW480 was over 10 µM in each case. This molecule also yielded an EC50 in the test on HeLa [1] of over 40 µM.
